What all share (details): treatment: drug + dasatinib (fixed dose, not stated); 5 days
For experiment [1], the system named is CAKI-1. In words: GI50 of drug in presence of dasatinib; higher = less potent. How it is done:
(§1)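 Primary HTS combination arm: 8 RCC cell lines treated with 8 doses (up to 10 uM) of each library drug plus a fixed dose of dasatinib (dose not stated) for 5 days; viability read by CellTiter-Glo and normalised to DMSO. GI50 was fitted with XLfit, AUC is the area under the dose-response curve, and minimum viability is the lowest fraction of DMSO viability across doses.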

Experiment [2] concerns SN12C. The description is as above. Here is the method: as §1
The subject of experiment [3] is TK-10. The experiment is described as above. How it is done:
as §1

Experiment [4] has as its system 769-P. The experiment is described as above. How it is done: as §1
Experiment [5] relates to A498. Described as above. How it is done: as §1
Experiment [6] has as its system UO-31. The description is as above. Here is the method: as §1
Experiment [7] deals with CAKI-1. In words: minimum viability across doses, drug + dasatinib, relative to DMSO (fraction); higher = less growth inhibition. Here is the method:
as §1

Experiment [8] has as its system SN12C. The experiment is described as above. Here is the method:
as §1

In experiment [9] the test system is ACHN. The description is as above. How it is done: as §1
The test system of experiment [10] is TK-10. Described as above. Here is the method:
as §1

In experiment [11] the test system is 769-P. The description is as above. How it is done:
as §1

Experiment [12] deals with A498. The experiment is described as above. Here is the method: as §1
For experiment [13], the system named is 786-O. The description is as above. Here is the method: as §1
For experiment [14], the system named is UO-31. The experiment is described as above. How it is done: as §1
Experiment [15] concerns CAKI-1. The experiment in a line: AUC of dose-response viability curve, drug + dasatinib, normalised to DMSO (arbitrary (AUC of normalised viability)); higher = less growth inhibition. Here is the method: as §1
Experiment [16] concerns SN12C. The description is as above. Here is the method:
as §1

The test system of experiment [17] is ACHN. The experiment is described as above. How it is done:
as §1

For experiment [18], the system named is TK-10. The description is as above. Here is the method: as §1
The subject of experiment [19] is 769-P. Described as above. How it is done:
as §1

Experiment [20] deals with A498. The description is as above. Here is the method:
as §1

For experiment [21], the system named is 786-O. Described as above. Here is the method:
as §1

The subject of experiment [22] is UO-31. The description is as above. How it is done: as §1
In experiment [23] the test system is 786-O. The experiment in a line: GI50 of drug in presence of dasatinib; higher = less potent. How it is done:
as §1

Where only a bound is given, the exact number is not on record here.

Turning to `COc1ccc2c(c1OC)N=C(NC(=O)c1cccnc1)N1CCN=C21` [PIK-90] + Cc1nc(Nc2ncc(C(=O)Nc3c(C)cccc3Cl)s2)cc(N2CCN(CCO)CC2)n1 [dasatinib], the GI50 of drug in the experiment with CAKI-1 [1] is 0.424 µM; with SN12C [2] it was 2.26 µM; in the experiment with TK-10 [3], greater than 10 µM; in the experiment on 769-P [4], 1.48 µM; with A498 [5], greater than 10 µM; in the experiment on UO-31 [6], 3.82 µM. For the same molecule, the “minimum viability across doses” value came to 0.136 in the experiment on CAKI-1 [7]; 0.52 with SN12C [8]; 0.235 in the experiment on ACHN [9]; 0.552 in the experiment on TK-10 [10]; 0.268 in the experiment on 769-P [11]; 0.762 with A498 [12]. For the same molecule, the “minimum viability across doses” value worked out at 0.388 in the experiment on 786-O [13] and 0.434 in the experiment with UO-31 [14]. The “AUC of dose-response viability curve” value came to 1.82 in the experiment on CAKI-1 [15]; 2.21 with SN12C [16]; 1.7 in the experiment with ACHN [17]; 2.3 in the experiment on TK-10 [18]; 2.03 in the experiment with 769-P [19]; 3.11 in the experiment with A498 [20]. Besides, the “AUC of dose-response viability curve” value was 1.76 in the experiment with 786-O [21] and 2.69 in the experiment on UO-31 [22].
Turning to `Cc1cc(C(C)Nc2ccccc2)c2nc(N3CCOCC3)cc(=O)n2c1` (stereo not given) [TGX-221] + Cc1nc(Nc2ncc(C(=O)Nc3c(C)cccc3Cl)s2)cc(N2CCN(CCO)CC2)n1 [dasatinib], the GI50 of drug in the experiment with CAKI-1 [1] was 0.231 µM; in the experiment with SN12C [2], greater than 10 µM; in the experiment with TK-10 [3], greater than 10 µM; with A498 [5] it was greater than 10 µM; in the experiment with UO-31 [6], 4.86 µM. The “minimum viability across doses” value amounted to 0.281 in the experiment on CAKI-1 [7]; 0.624 in the experiment on SN12C [8]; 0.424 in the experiment on ACHN [9]; 0.554 in the experiment with TK-10 [10]; 0.346 in the experiment with 769-P [11]; 0.949 in the experiment with A498 [12]. The “minimum viability across doses” value with 786-O [13] amounted to 0.299; with UO-31 [14], 0.349. Also, the “AUC of dose-response viability curve” value came to 1.83 in the experiment with CAKI-1 [15]; 2.4 with SN12C [16]; 1.82 in the experiment on ACHN [17]; 2.35 with TK-10 [18]; 2.01 in the experiment on 769-P [19]; 3.6 in the experiment with A498 [20]. Besides, the entries for the “AUC of dose-response viability curve” value in the experiment on 786-O [21] and in the experiment on UO-31 [22] were 2.04 and 3.16, respectively.
On to `NC(=O)c1ccc(-c2nc(-c3ccc4c(c3)OCO4)c(-c3ccccn3)[nH]2)cc1` + Cc1nc(Nc2ncc(C(=O)Nc3c(C)cccc3Cl)s2)cc(N2CCN(CCO)CC2)n1 [dasatinib], for which the GI50 of drug in the experiment on CAKI-1 [1] was 3 µM; in the experiment on SN12C [2], greater than 10 µM; in the experiment on TK-10 [3] it was greater than 10 µM; in the experiment on A498 [5] it was greater than 10 µM; with 786-O [23], 2.37 µM; with UO-31 [6], greater than 10 µM. Further, the “minimum viability across doses” value in the experiment on CAKI-1 [7] is 0.456; in the experiment on SN12C [8] it was 0.446; with ACHN [9], 0.317; in the experiment with TK-10 [10] it was 0.636; with 769-P [11], 0.234; with A498 [12], 0.592. The entries for the “minimum viability across doses” value in the experiment on 786-O [13] and with UO-31 [14] were 0.485 and 0.844, respectively. In addition, the “AUC of dose-response viability curve” value is 2.18 in the experiment on CAKI-1 [15]; 2.41 with SN12C [16]; 2.08 with ACHN [17]; 2.75 in the experiment on TK-10 [18]; 1.77 with 769-P [19]; 3.17 with A498 [20]. For the same molecule, the “AUC of dose-response viability curve” value was 2.24 in the experiment with 786-O [21] and 3.57 in the experiment with UO-31 [22].

The values are drawn from the supplement of paper PMC8149375.
